In patent US9950067B2, “Trans carotenoids, their synthesis, formulation and uses” (Diffusion Pharmaceuticals, LLC, priority 2005, dated 2018):
Several values for one entry are separate records, joined by “and”; a condition that tells them apart may be missing. Equal entries are not always repeated. Entries after “also recorded” stand apart in the source; their conditions may differ. Where two headings read alike, the source gives them in different places.

Assays:
[1] = natural bipolar carotenoids, background; cited from earlier work
[2] = Intramuscular administration, absorption into the blood stream; type: in vivo, rats
Protocol: TSC is not absorbed via an intramuscular route when simply dissolved in de-ionized water; however, the addition of a cyclodextrin (as in the formulated drug product) results in absorption into the blood stream. Small volumes (0.05 mL) were injected into each thigh muscle of rats with TSC formulated with 2-hydroxypropyl-β-cyclodextrin or γ-cyclodextrin and dissolved in water.

[3] = Solubility in water and aqueous formulations; type: physicochemical
Protocol: Formulation of TSC with Cyclodextrin-Mannitol • 1. Make up a solution containing equal-molar concentrations of the cyclodextrin and the TSC. Solutions containing over 20 mg TSC/ml of solution can be made this way. First, add the cyclodextrin to an injectable water, then add the TSC to that solution. • 2. Add d-mannitol, so that the final concentration is around 20 to 50 mg/ml of mannitol in solution. • 3. This solution can be added to isotonic saline in order to dilute it and still maintain the proper osmolality. Either add the solution to saline or add saline to the solution.
Formulation of TSC with Mannitol/Acetic Acid • 1. Make up a 0.01 M acetic acid solution in distilled water. • 2. […] Add the 0.0005 M acetic acid solution, slowly, to TSC. […] Add d-mannitol to above solution at a concentration of 50 mg/ml in order to obtain the proper osmolality. The pH of this solution is around 8 to 8.5. It should be close to being an isotonic solution, and, as such, can be injected directly into the blood stream.

[4] = Stability of TSC in formulation versus pH; settings: aqueous formulation
[5] = tested on: rats subjected to hemorrhagic shock; assay: Treatment of hemorrhagic shock; type: in vivo; settings: for treatment of hemorrhagic shock: rats
[6] = Oral administration, plasma concentrations; type: in vivo, rats; settings: with γ-cyclodextrin
Protocol: PE-50 tubing was used to deliver formulated TSC into the stomachs of rats, and plasma concentrations were measured after that. Rats were fasted for 24 hours prior to each experiment. Water was given ad libitum and coprophagy was prevented by using cages with wire-mesh floors. One study involved rats that were allowed food ad libitum after TSC administration and another study involved rats in which food was withheld after TSC administration.

[7] = Pulmonary administration, absorption into the blood stream; type: in vivo, rats
Protocol: In this method, the rats were intubated and a small volume (0.1 mL usually) of the TSC solution was injected followed by two 3-mL puffs of air.
Additional studies have been done with pulmonary dosing in which the effect of the volume of liquid injected into the trachea as well as using TSC in its formulated drug product form were investigated. The formulated drug product contained 8% γ-cyclodextrin, 2.3% mannitol and 50 mM glycine and 20 mg/mL TSC, reconstituted in sterile water. Sterile saline (0.9%) was added as a diluent in these studies in order to achieve the desired dosages. The same dose (937 μg/kg) was administered to all rats.

[8] = Preclinical study of myocardial infarction; type: in vivo; settings: injected intravenously
[9] = tested on: HCT116 human colon carcinoma tumors; assay: Radiation sensitization of tumors grown on mice
Protocol: There were six study groups of five mice per group (for a total of 30 mice) designated Study Groups 1 through 6. All mice in the study were injected intravenously with either a TSC dose or a saline control for five successive days. As shown below, Study Groups 1, 2 and 3 received TSC doses A, B and C, which corresponds to 0.07, 0.14 and 0.28 mg/kg respectively for the study B, and 1.35, 0.54 and 0.18 mg/kg respectively for the study A.
Group 4 was injected as a saline control. At 45 minutes post-injection on each of the five successive days, the tumors of Study Groups 1-4 received 2 Gy irradiation. Study Group 5 received TSC only and Study Group 6 received saline only, and neither Study Group 5 nor 6 received irradiation. Tumor volumes in all Study Groups were measured weekly for the earlier of 4 weeks or until the tumors reached 4 times the volume at the start of treatment.

[10] = pulmonary, formulated drug product, 937 μg/kg

CC(/C=C/C=C(\C)C(=O)O[C@@H]1O[C@H](CO[C@@H]2O[C@H](CO)[C@@H](O)[C@H](O)[C@H]2O)[C@@H](O)[C@H](O)[C@H]1O)=C\C=C\C=C(C)\C=C\C=C(/C)C(=O)O[C@@H]1O[C@H](CO[C@@H]2O[C@H](CO)[C@@H](O)[C@H](O)[C@H]2O)[C@@H](O)[C@H](O)[C@H]1O [crocin]
solubility in water [1]: significant solubility in water

CC(/C=C/C=C(\C)C(=O)O)=C\C=C\C=C(C)\C=C\C=C(/C)C(=O)O [crocetin]
solubility in water [1]: only sparingly soluble in water

CC(/C=C/C=C(\C)C(=O)[O-])=C\C=C\C=C(C)\C=C\C=C(/C)C(=O)[O-].[Na+].[Na+] [TSC, trans sodium crocetinate]
bioavailability ([2]; rat, plasma, im, 3347 μg/kg body weight, rats, intramuscular 3347 μg/kg with 14 mg 2-hydroxypropyl-β-cyclodextrin per kg): 27% | peak plasma TSC concentration ([2]; rats, intramuscular 3347 μg/kg with 14 mg 2-hydroxypropyl-β-cyclodextrin per kg): 4.8 µg/mL | absorption via intramuscular route ([2]; simply dissolved in de-ionized water): not absorbed | absorption via intramuscular route ([2]; with γ-cyclodextrin): successful absorption into the systemic circulation; also recorded: absorbed into the blood stream | solubility ([3]; 0.0005 M acetic acid solution, aqueous buffer, thermodynamic from solid, read-out: Maximum solubility): 6000 to 6500 µg/mL | dissolution in acetic acid ([3]; 0.001 M acetic acid): doesn't dissolve | TSC content of aqueous solution ([3]; TSC and gamma-cyclodextrin): ≤ 44 milligrams of TSC per ml of solution | TSC content of solution ([3]; formulated with cyclodextrin and mannitol): over 20 mg TSC/ml of solution | solubility in water ([3]; water): soluble in water | stability versus pH [4]: more stable at higher pHs | effect on tachycardia ([5]; rats subjected to hemorrhagic shock): reduce tachycardia | treatment of hemorrhagic shock ([5]; intramuscular injection): successfully treated | treatment of hemorrhagic shock ([5]; pulmonary route): successfully treated | effect of γ-cyclodextrin on oral absorption [6]: enhances absorption | pulmonary absorption without cyclodextrin ([7]; TSC in pH'd di-water): successful absorption into the blood stream | effect of larger injection volume of the same dose on bioavailability ([7]; pulmonary, 937 μg/kg): greater bioavailability | effect of γ-cyclodextrin on absorption into the systemic circulation [7, 10]: enhances absorption | effect of γ-cyclodextrin on plasma clearance [7, 10]: increasing plasma clearance | time to reach the maximum plasma concentration ([7]; rats, pulmonary): < 5 min | effect on ventricular fibrillation [8]: prevented ventricular fibrillation | optimal dosage ([9]; Study A, i.v. 5 days, 2 Gy irradiation 45 minutes post-injection): 0.18 mg/kg | dosages that worked equally well ([9]; Study B, i.v. 5 days, 2 Gy irradiation 45 minutes post-injection): 0.07 mg/kg and 0.14 mg/kg | effect on tumor growth ([9]; TSC alone, no irradiation, FIG. 3): does not appreciably affect tumor growth

CCOC(=O)/C(C)=C/C=C/C(C)=C/C=C/C=C(C)/C=C/C=C(\C)C(=O)OCC [Compound E, Diethyl 2,6,11,15-Tetramethyl-hexadeca-2E,4E,6E,8E,10E,12E,14E-heptaene-1,16-diotate]
solubility ([3]; in water and in THF): poorly soluble
